# Results from patent publication US20190142971A1, “FORMULATION AND DELIVERY OF MODIFIED NUCLEOSIDE, NUCLEOTIDE, AND NUCLEIC ACID COMPOSITIONS” (ModernaTX, Inc., priority 2013, published 2019).
# Tested on: Balb-C mice
# Experiment: Example 108: luciferase mRNA IM with electroporation, total flux (Tables 174-176)
# Format: in vivo
# Conditions: PBS, IM 2.5 mg/kg
# Protocol: The mice of Group 2 were treated with electroporation (EP) using the […]™ instrument (Harvard Apparatus/BTX®, Holliston, Mass.) immediately after administration of luciferase.
# […] Twenty minutes prior to imaging, the mice were injected intraperitoneally with a D-luciferin solution at 150 mg/kg. Animals were then anesthetized and images were acquired with an IVIS Lumina II imaging system (Perkin Elmer). Bioluminescence was measured as total flux (photons/second) of the entire mouse.
substance,measurement,setting,value
"Luciferase: luciferase mRNA, SEQ ID NO: 14, Cap1, fully modified with 5-methylcytosine and pseudouridine",Total Flux (photons/s),"Group 1, no EP, 3 Hours",2.57E+07 photons/s
same,Total Flux (photons/s),"Group 1, no EP, 24 Hours",3.81E+07 photons/s
same,Total Flux (photons/s),"Group 1, no EP, 48 Hours",1.24E+07 photons/s
same,Total Flux (photons/s),"Group 1, no EP, 72 Hours",5.69E+06 photons/s
same,Total Flux (photons/s),"Group 1, no EP, 168 Hours",1.48E+06 photons/s
same,Total Flux (photons/s),"Group 1, no EP, 240 Hours",6.50E+05 photons/s
same,Total Flux (photons/s),"Group 1, no EP, 360 Hours",1.86E+05 photons/s
same,Total Flux (photons/s),"Group 1, no EP, 480 Hours",6.65E+04 photons/s
same,Total Flux (photons/s),"Group 2, with EP, 24 Hours",8.27E+07 photons/s
same,Total Flux (photons/s),"Group 2, with EP, 48 Hours",7.06E+07 photons/s
same,Total Flux (photons/s),"Group 2, with EP, 72 Hours",6.50E+07 photons/s
same,Total Flux (photons/s),"Group 2, with EP, 168 Hours",1.81E+07 photons/s
same,Total Flux (photons/s),"Group 2, with EP, 240 Hours",1.44E+07 photons/s
same,Total Flux (photons/s),"Group 2, with EP, 360 Hours",3.98E+06 photons/s
same,Total Flux (photons/s),"Group 2, with EP, 480 Hours",1.47E+06 photons/s
same,Total Flux (photons/s),"Group 2, with electroporation (EP), 3 Hours",1.25E+07 photons/s
